Measured values published in patent publication US12226449B2, “Materials and methods for the prevention of rheumatoid arthritis” (The University of Toledo, priority 2018, dated 2025).
“Also recorded” adds a separate entry of the source.

B1: 14-3-3ε: another 14-3-3 isoform, used for specificity and comparison (protein, UniProt P62258 1-255, looked up)
14-3-3 protein epsilon: MDDREDLVYQAKLAEQAERYDEMVESMKKVAGMDVELTVEERNLLSVAYKNVIGARRASWRIISSIEQKEENKGGEDKLKMIREYRQMVETELKLICCDILDVLDKHLIPAANTGESKVFYYKMKGDYHRYLAEFATGNDRKEAAENSLVAYKAASDIAMTELPPTHPIRLGLALNFSVFYYEILNSPDRACRLAKAAFDDAIAELDTLSEESYKDSTLIMQLLRDNLTLWTSDMQGDGEEQNKEALQDVEDENQ

Columns and labels:
Format in all cases: cell-based
[1] = system: human PBMCs; test: ELISPOT assay of IFN-γ and IL-17 secreting cells; conditions: for effect on 14-3-3ζ-induced IFN-γ secreting cells / effect on 14-3-3ζ-induced IL-17 secreting cells: drug present during 14-3-3ζ incubation
Experimental: Cells were plated with 14-3-3ζ protein in a 96-well plate for 14 days at 37° C. in complete RPMI culture medium. Phytohemagglutinin (PHA) was used as a positive control. 10 μl MTT was added at a concentration of 5 mg/mL, and the plate was further incubated at 37° C. in the dark for 3 hours. Supernatant was then removed, and 100 μL DMSO was added for another hour before reading the absorbance at 570 nm using FLUOstar Omega microplate reader (BMG Labtech). For T cell differentiation, PBMCs were incubated with 1 μg/ml of 14-3-3ζ for 7 days followed by either the cellular staining for FACS analysis or ELISPOT as per manufacture's protocol. For testing the effect of drugs, prednisolone, prednisone, as well as TJU103, were used at 1 μg/ml concentration and cyclophosphamide was used at 0.1 μg/ml concentration.
The protocol was adopted from Immunospot kit from Cellular Technology Limited. In short, PBMCs incubated with 14-3-3ζ for 7 days were plated on the antibody coated ELISPOT plates. About 100,000 cells/well were added and incubated for 2 days at 37° C. followed by the developing protocol. Plates were read with a Quantihub ELISPOT plate reader and manually counted.

[2] = system: human PBMCs; test: T cell polarization of PBMCs by flow cytometry (CD4, CD366, IL-17, CD8, CD69); conditions: drug present during 14-3-3ζ incubation, prednisolone, prednisone, TJU103 1 μg/ml, cyclophosphamide 0.1 μg/ml, BV02 5 nM
Experimental: Cells were plated with 14-3-3ζ protein in a 96-well plate for 14 days at 37° C. in complete RPMI culture medium. Phytohemagglutinin (PHA) was used as a positive control. 10 μl MTT was added at a concentration of 5 mg/mL, and the plate was further incubated at 37° C. in the dark for 3 hours. Supernatant was then removed, and 100 μL DMSO was added for another hour before reading the absorbance at 570 nm using FLUOstar Omega microplate reader (BMG Labtech). For T cell differentiation, PBMCs were incubated with 1 μg/ml of 14-3-3ζ for 7 days followed by either the cellular staining for FACS analysis or ELISPOT as per manufacture's protocol. […] PBMCs incubated with 14-3-3ζ for 7 days at 37° C. were fixed in 2% paraformaldehyde for an hour, and washed with PBS. […] For surface staining, cells were stained in 50 μL PBS with 5 μl per million cells antibody for 30 minutes in the dark on ice. For intracellular staining, cells were permeabilized with Triton for 10-15 min. After staining, cells were washed with PBS and resuspended in 1 mL PBS for analysis. The following antibodies from Biolegend Inc. were used: […] Cells were sorted at FACSCanto II system (BD Biosciences) and analyzed using FlowJo software (version 10). A gate was created around an initial population of cells in the FSC-SSC plot, and this population of cells was further analyzed for CD4, CD366, and IL-17 expression. Unstained and isotype labelled cells were used as a control for setting the gates.

[3] = system: human PBMCs; test: PBMC proliferation, MTT assay; conditions: for effect on 14-3-3ζ-induced PBMC proliferation: inhibitor present during 14-3-3ζ incubation, BV02 5 nM, TJU103 1 μg/ml
Experimental: Blood from healthy donors was collected as per the approved IRB protocol. The protocol for isolation of PBMCs was previously reported. In short, whole blood was diluted with an equal volume of RPMI before layering on Ficoll-Paque PLUS in a 15 mL tube. Tubes were then centrifuged for 25 minutes with the brakes off at 950 g. PBMCs were collected from the layer between the plasma and Ficoll liquid. PBMCs were then washed twice with RPMI, with 7 min spins at 350×g to pellet the cells. Finally, cells were resuspended in complete RPMI before counting and plating. […] Phytohemagglutinin (PHA) was used as a positive control. 10 μl MTT was added at a concentration of 5 mg/mL, and the plate was further incubated at 37° C. in the dark for 3 hours. Supernatant was then removed, and 100 μL DMSO was added for another hour before reading the absorbance at 570 nm using FLUOstar Omega microplate reader (BMG Labtech). For T cell differentiation, PBMCs were incubated with 1 μg/ml of 14-3-3ζ for 7 days followed by either the cellular staining for FACS analysis or ELISPOT as per manufacture's protocol.

[4] = system: human PBMCs; test: ELISA of secreted (accumulated) cytokines of PBMCs; conditions: drug present during 14-3-3ζ incubation
[5] = system: human PBMCs; test: ELISPOT assay of IFN-γ and IL-17 secreting cells; conditions: PBMC treated with protein for 7 d

Molecule	effect on 14-3-3ζ-induced IFN-γ secreting cells [1]	effect on 14-3-3ζ-induced IL-17 secreting cells [1]	effect on 14-3-3ζ-induced CD366 positive CD4 cells (Th1) [2]	effect on 14-3-3ζ-induced IL-17 positive CD4 cells (Th17) [2]	effect on 14-3-3ζ-induced PBMC proliferation [3]	effect on 14-3-3ζ-induced accumulated IL-17 level [4]	effect on IL-6 level [4]	further results
Cc1c(N2C(=O)c3ccc(C(=O)O)cc3C2=O)c(=O)n(-c2ccccc2)n1C [BV02]	did not show an increase; also recorded: significant inhibition	did not show an increase; also recorded: significant inhibition	no effect; also recorded: did not affect	no effect; also recorded: did not affect	no effect; also recorded: did not show any difference			effect on PHA induced IFN-γ secreting cells ([1]; BV02 present): did not affect; effect on PHA induced IL-17 secretion ([1]; BV02 present): partial inhibition; effect on PHA induced PBMC proliferation ([3]; BV02 present): no suppression; also recorded: did not affect
O=C(NN=Cc1c[nH]c2ccccc12)c1ccncc1 [TJU103]	stronger decrease; also recorded: suppressed; also recorded: Inhibition	less sensitive to inhibition	suppressed	suppressed	did not inhibit	no difference	no difference	effect on 14-3-3ζ-induced IFN-γ secreting cells ([1]; listed as TJU131): mild suppression; effect on 14-3-3ζ-induced IL-17 secreting cells ([1]; listed as TJU131): mild suppression; effect on 14-3-3ζ-induced accumulated IL-17 level ([4]; listed as TJU131): no significant difference
O=P1(N(CCCl)CCCl)NCCCO1 (stereo not drawn) [cyclophosphamide]	mild inhibition; also recorded: impacted only IFN-γ producing cells		significant suppression; also recorded: mild inhibition	only milder inhibition; also recorded: no sufficient inhibition; also recorded: no effect				
C[C@]12C=CC(=O)C=C1CC[C@@H]1[C@@H]2[C@@H](O)C[C@@]2(C)[C@H]1CC[C@]2(O)C(=O)CO [prednisolone]	Significant suppression; also recorded: strong inhibition	significant suppression; also recorded: strong inhibition	mild effect	significant suppression; also recorded: strongly inhibited		Significant suppression; also recorded: reproduced effect on accumulated IL-17	bare minimum effect	effect on 14-3-3ζ-induced CD366 positive CD4 cells (Th1) ([2]; listed as Prednisolone): suppressed; effect on 14-3-3ζ-induced IL-17 positive CD4 cells (Th17) ([2]; listed as Prednisolone): suppressed
C[C@]12C=CC(=O)C=C1CC[C@@H]1[C@@H]2C(=O)C[C@@]2(C)[C@H]1CC[C@]2(O)C(=O)CO [prednisone]	no effect	no effect						
B1								number of IFN-γ and IL-17 secreting cells ([5]; listed as 14-3-3e): not replaced; number of IFN-γ and IL-17 secreting cells ([5]; listed as 14-3-3 epsilon): no significant effect
